In the oligonucleotide strings, read from the 5' end, every base follows the letter of its sugar. An asterisk marks phosphorothioate; unmarked linkages are phosphodiester. Other units and linkages are bracketed, terminal groups are in braces. A string of capitals states the bases alone. d = 2'-deoxy (DNA)
Columns and labels:
[1] = system: CD4+ Treg cells (Treg102, Treg164); test: Proliferation assay without DCs: Treg suppression of naive CD4+ T cell proliferation, anti-CD3-coated plates; format: cell-based, human; details: absence of DCs; for reversal of Treg cell-mediated suppression of naive CD4+ T cell proliferation: anti-CD3-coated plates, oligonucleotides 3 ug/ml in medium
Excerpt: (§1) Establishing Treg cell lines and purifying natural CD4^+ CD25^+ Treg cells CD4^+ Treg clones were established from CD4^+ tumor-infiltrating lymphocytes (TIL102 and TIL164) and maintained in RPMI 1640 medium containing 10% human AB serum and recombinant IL-2 (300 IU/ml) using methods well known in the art (See, e.g., H. Y. Wang et al., Immunity 20, 107-118 (2004)). Treg clones derived from TIL102 or TIL164 cells were pooled and designated Treg102 or Treg164. Naturally occurring CD4^+ CD25^+ Treg cells were obtained by sorting CD4^+ T cell populations from fresh PBMCs after staining with anti-CD4 and anti-CD25 antibodies. To obtain optimal expansion, the OKT3 expansion method was performed using methods well known in the art (See, e.g., H. Y. Wang et al., Immunity 20, 107-118 (2004)). T cell clones were maintained at a low IL-2 concentration (300 IU/ml). Melanoma cell lines and EBV-transformed B-cell lines used in this study were cultured in RPMI 1640 medium containing 10% FCS. Human embryonic kidney (HEK) 293 and Epstein-Barr virus (EBV)-transformed B cell lines were maintained in RPMI 1640 with 10% fetal calf serum (FCS).
B. Proliferation assay without DCs: 1×10^5 näive CD4 T cells were cultured with regulatory T cells at different ratios (1: 0.2, 1:0.1 and 1:0.05) in anti-CD3 mAb-coated (2 ug/ml) 96-well plates in the presence or absence of the following TLR ligands or cytokines: CpG-A (3 ug/ml), CpG-B (3 ug/ml), LPS (100 ng/ml), TNF.-α (20 ng/ml), IFN-α (100 ng/ml), or IL-6 (100 ng/ml). After 56 h of culture, [3H]thymidine was added at a final concentration of 1 uCi/well, followed by an additional 16 h of culture. The incorporation of [^3H]thymidine was measured with a liquid scintillation counter.
Näive CD4^+ T cell proliferation experiments were performed similar to those in FIG. 1A, but in the absence of DCs. […] The reversal effect of CpG-A (SEQ ID NO: 1) contrasts with the failure of CpG-B (SEQ ID NO: 2), LPS, TNF-α, IL-6 or IFN-α to block the suppressive activity of CD4^+ Treg cells against naive CD4^+ T cells (FIG. 1B).
To further define the CpG-A (SEQ ID NO: 1) sequences responsible for the observed reversal effect, CpG-NG (SEQ ID NO: 5) and Poly-G10 (SEQ ID NO: 6), were tested for their ability to reverse the suppressive function of Treg cells. Naive CD4^+ T cells were mixed with CD4^+ Treg cells in anti-CD3 antibody-coated 96-wells with 200 μl of medium containing CpG-NG (SEQ ID NO: 5), CpG-A (SEQ ID NO: 1) or Poly-G10 (SEQ ID NO: 6). The proliferation assay was conducted as described in FIG. 1. […] For the experiments shown in FIG. 2B, naive CD4^+ T cells were mixed with CD4^+ Treg cells in anti-CD3 antibody-coated 96-wells with 200 μl of medium containing Poly-A10 (SEQ ID NO: 7), Poly-T10 (SEQ ID NO: 9) or Poly-C10 (SEQ ID NO: 8), while the Poly-G10 (SEQ ID NO: 6) oligonucleotides served as a positive control.
A series of oligonucleotides with decreasing numbers of guanosine nucleosides was constructed to determine the minimal number required for the reversal effect. For the experiments in FIG. 2C, CD4^+ T cells were mixed with CD4^+ Treg cells in anti-CD3 antibody-coated 96-wells containing medium with protected phosphorothioate linked guanosine nucleoside containing oligonucleotides of various lengths, while the unprotected five guanosines (SEQ ID NO: 10) served as a control.

[2] = system: CD4+ Treg cells (Treg102, Treg164); test: Proliferation assay with dendritic cells: Treg suppression of naive CD4+ T cell proliferation ([3H]thymidine); format: cell-based, human; details: with DCs and soluble anti-CD3; CpG-A 3 ug/ml
Excerpt: as §1
A. Proliferation assay with Dendritic Cells (DCs): Näive CD4^+ T cells were purified from PBMCs using microbeads (Miltenvi Biotec). DCs were generated from PBMC-derived monocytes in the presence of IL-4 (500 ng/ml) and GM-CSF (800 ng/ml) for 7 days. 1×105 näive CD4^+ T cells were cultured with regulatory T cells at different ratios (1: 0.2, 1:0.1 and 1:0.05) in 200 ul of medium containing 2×104 of DCs and anti-CD3 antibody (100 ng/ml) plus one of the following TLR ligands or cytokines: CpG-A (3 ug/ml), CpG-B (3 ug/ml), LPS (100 ng/ml), TNF.-α (20 ng/ml), IFN-α (100 ng/ml), or IL-6 (100 ng/ml). After 56 h of culture, [3H]thymidine was added at a final concentration of 1 uCi/well, followed by an additional 16 h. of culture. The incorporation of [^3H]thymidine was measured with a liquid scintillation counter, using methods well known in the art (See, e.g., M. K. Levings et al., J. Exp. Med. 196, 1335-46 (2002)). All experiments were performed in triplicate.
Two CD4^+ Treg cell lines, designated Treg102 and Treg164, were generated with a panel of Treg cell clones derived from TIL102 and TIL164 cells. […] A functional proliferation assay was employed to examine whether CpG (a TLR9 ligand), LPS (a TLR4 ligand) or the cytokines IL-6 or IFN-α could regulate the suppressive activity of antigen specific human CD4^+ Treg cells in the presence of DCs. […]

Substance	reversal of Treg cell-mediated suppression of naive CD4+ T cell proliferation [1]	effect on proliferation of naive CD4+ T cells or Treg cells alone [1]	proliferation of naive CD4+ T cells restored, % of normal levels [2]
Poly-G10: guanosine oligonucleotide with protected phosphorothioate backbone (DNA dG*dG*dG*dG*dG*dG*dG*dG*dG*dG)	retained or even enhanced	–	–
G* GGGGACGATCGTCG* G*G*G*G*G [CpG-A]	restored the proliferation of naive CD4^+ T cells to near normal levels	lacked any effect	50-80%
